From ChEMBL document CHEMBL1201862, “PubChem BioAssay data set” (2004)
Counter-ions that a name gives are not always drawn. Activity calls are given as the source filed them.

Experiments:
[1] = viability of HCT116 lacking mutant beta-catenin – cell-based, human colon tumor, dose response (AID 1045); assay type: functional;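 further: HCT116 colon tumor cells with beta catenin knocked out; cells exposed to compound for 60 hours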
[2] = target: 72 kDa type IV collagenase (Homo sapiens, UniProt P08253); assay: Dose Response validation of uHTS RPN11 inhibitor hits using a MMP-2 Fluorescence assay.; assay type: functional
[3] = Luminescence Cell-Based Dose Retest to Confirm Inhibitors of Cancer Stem Cells. [Related pubchem assays (depositor defined):AID2717, AID2721]; assay type: functional; conditions: Homo sapiens
[4] = target: 26S proteasome non-ATPase regulatory subunit 14 (Homo sapiens, UniProt O00487); assay: inhibition of proteasome subunit RPN11 – biochemical, fluorescence polarization, uHTS hits, confirmation (AID 602368); assay type: functional
[5] = target: T1, Apoptotic protease-activating factor 1 (Homo sapiens, UniProt O14727); assay type: functional
T1 sequence (O14727 whole entry): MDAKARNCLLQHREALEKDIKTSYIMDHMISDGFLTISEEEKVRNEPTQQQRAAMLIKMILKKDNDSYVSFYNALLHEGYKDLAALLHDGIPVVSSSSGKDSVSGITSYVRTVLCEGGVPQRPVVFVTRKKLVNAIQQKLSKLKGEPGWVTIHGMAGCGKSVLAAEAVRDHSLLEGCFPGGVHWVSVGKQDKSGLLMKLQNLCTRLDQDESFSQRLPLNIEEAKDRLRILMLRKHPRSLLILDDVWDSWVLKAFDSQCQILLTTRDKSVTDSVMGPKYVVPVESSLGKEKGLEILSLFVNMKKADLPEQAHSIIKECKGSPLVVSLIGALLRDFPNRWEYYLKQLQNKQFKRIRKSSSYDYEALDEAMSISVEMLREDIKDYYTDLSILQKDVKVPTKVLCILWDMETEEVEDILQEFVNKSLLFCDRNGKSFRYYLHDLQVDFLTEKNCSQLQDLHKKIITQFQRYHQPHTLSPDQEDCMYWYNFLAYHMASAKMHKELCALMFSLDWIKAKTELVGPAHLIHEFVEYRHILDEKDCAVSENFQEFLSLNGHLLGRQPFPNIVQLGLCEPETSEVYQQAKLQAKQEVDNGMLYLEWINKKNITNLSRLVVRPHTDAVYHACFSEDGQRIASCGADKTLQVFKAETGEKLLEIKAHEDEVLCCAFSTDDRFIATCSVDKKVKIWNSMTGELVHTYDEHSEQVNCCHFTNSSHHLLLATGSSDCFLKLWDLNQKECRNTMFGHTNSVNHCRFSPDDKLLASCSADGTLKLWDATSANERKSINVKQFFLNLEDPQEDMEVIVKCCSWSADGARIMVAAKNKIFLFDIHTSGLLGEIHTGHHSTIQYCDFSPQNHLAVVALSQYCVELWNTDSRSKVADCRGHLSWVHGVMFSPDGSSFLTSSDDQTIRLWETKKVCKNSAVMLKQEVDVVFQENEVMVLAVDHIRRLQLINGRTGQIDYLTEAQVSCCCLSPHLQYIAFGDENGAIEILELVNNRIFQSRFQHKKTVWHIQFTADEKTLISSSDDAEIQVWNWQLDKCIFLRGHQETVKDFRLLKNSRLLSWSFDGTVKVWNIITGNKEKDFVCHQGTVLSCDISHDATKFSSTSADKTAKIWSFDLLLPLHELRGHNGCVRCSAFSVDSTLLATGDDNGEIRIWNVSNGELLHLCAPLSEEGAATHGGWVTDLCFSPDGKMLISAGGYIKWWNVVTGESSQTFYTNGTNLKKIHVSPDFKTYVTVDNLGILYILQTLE

[6] = viability of PTEN-deleted HCT116 cells – cell-based, HCT116 PTEN knockout, dose response (AID 1047); assay type: functional;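 further: HCT116 colon tumor cells with PTEN knocked out; cells exposed to compound for 60 hours before readout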
[7] = test system: A-375; assay: proliferation inhibition in MITF-low A375 cells – cell-based, cherry-pick samples, set 2, counter-screen for MITF modulator project, dose response (AID 540335); assay type: functional; conditions: Homo sapiens
[8] = target: Prothrombin (Bos taurus, UniProt P00735); assay: thrombin protease inhibitors – biochemical, fluorescence polarization, uHTS hits, dose response (AID 602369); assay type: functional
[9] = target: Protein-tyrosine kinase 2-beta (Homo sapiens, UniProt Q14289);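 further: potency of inhibitors of PYK2 kinase phosphorylation of poly-GT substrate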
[10] = target: T2, Microphthalmia-associated transcription factor (Homo sapiens, UniProt O75030); assay: reducers of TRPM1 reporter luminescence, concentration series – cell-based, SK-MEL-5, cherry-picked, set 3, MITF inhibitor project, dose response (AID 493073); assay type: functional;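 further: SK-MEL-5 melanoma cells with luciferase driven by the MITF target TRPM1 promoter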
T2 sequence (O75030 whole entry): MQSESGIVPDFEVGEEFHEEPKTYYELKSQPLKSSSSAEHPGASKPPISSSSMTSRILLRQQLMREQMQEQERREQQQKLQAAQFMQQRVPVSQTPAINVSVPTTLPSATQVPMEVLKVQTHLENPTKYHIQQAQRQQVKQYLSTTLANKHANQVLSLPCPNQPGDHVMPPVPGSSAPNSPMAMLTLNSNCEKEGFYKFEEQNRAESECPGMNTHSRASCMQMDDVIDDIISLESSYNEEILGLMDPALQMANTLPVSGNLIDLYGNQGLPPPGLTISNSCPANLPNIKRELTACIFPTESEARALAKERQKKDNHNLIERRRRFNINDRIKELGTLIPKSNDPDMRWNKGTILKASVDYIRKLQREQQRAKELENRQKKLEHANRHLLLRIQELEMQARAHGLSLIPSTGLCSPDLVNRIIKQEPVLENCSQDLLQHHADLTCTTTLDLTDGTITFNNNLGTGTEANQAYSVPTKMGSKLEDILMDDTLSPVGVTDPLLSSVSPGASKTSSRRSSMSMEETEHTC

[11] = target: Ephrin type-A receptor 4 (Mus musculus, UniProt Q03137); assay: EphA4 ligand-binding antagonists – biochemical, colorimetric, mouse EphA4, primary screen (AID 689); assay type: functional
[12] = target: T3, RNA-binding protein pos-1 (Caenorhabditis elegans, UniProt G5EF15); assay: disruptors of C. elegans POS-1 RNA interaction – biochemical, fluorescence polarization, dose response (AID 1964);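 further: purified POS-1 fused to maltose binding protein made in E. coli; potency of compounds blocking POS-1 binding to fluorescent RNA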
T3 sequence (G5EF15 whole entry): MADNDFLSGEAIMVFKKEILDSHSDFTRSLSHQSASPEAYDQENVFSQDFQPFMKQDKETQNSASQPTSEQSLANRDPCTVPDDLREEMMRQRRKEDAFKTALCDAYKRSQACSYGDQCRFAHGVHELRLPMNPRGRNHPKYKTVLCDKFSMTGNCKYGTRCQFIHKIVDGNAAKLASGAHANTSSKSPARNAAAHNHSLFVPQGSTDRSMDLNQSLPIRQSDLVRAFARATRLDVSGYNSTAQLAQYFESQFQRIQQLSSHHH

[13] = target: Genome polyprotein (Hepatitis C virus, UniProt Q2Q167); assay: disruption of hepatitis C core self-association – biochemical, TR-FRET, dose response (AID 2159); design: species or system Hepacivirus hominis;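 further: blocks dimerization of HCV core protein measured by TR-FRET between tagged core106 pairs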
[14] = target: T4, Zinc finger protein mex-5 (Caenorhabditis elegans, UniProt Q9XUB2); assay: potency of MEX-5 RNA-binding blockers – biochemical, C. elegans, fluorescence polarization, dose response (AID 1960)
T4 sequence (Q9XUB2 whole entry): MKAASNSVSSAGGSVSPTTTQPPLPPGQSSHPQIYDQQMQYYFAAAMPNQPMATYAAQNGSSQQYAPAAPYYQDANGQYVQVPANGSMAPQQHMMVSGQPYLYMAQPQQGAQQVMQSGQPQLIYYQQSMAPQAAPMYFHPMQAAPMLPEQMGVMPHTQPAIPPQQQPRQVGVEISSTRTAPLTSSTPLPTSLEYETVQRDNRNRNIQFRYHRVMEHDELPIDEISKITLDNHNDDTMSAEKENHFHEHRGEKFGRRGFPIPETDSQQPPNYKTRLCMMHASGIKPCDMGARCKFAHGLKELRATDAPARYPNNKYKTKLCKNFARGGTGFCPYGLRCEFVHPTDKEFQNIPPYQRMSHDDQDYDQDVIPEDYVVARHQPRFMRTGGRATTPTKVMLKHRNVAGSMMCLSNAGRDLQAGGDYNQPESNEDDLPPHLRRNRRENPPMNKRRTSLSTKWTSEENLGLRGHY

[15] = viability loss in Vero cells – cytotoxicity control for Vif-APOBEC3G degradation inhibitor project, dose response (AID 1117358); assay type: functional; conditions: Vero
[16] = target: Beta-galactosidase (Escherichia coli, UniProt Q8VNN2); assay type: functional
[17] = test system: CHO; assay: CHO cell viability loss, potency – luminescence, cytotoxicity control for TLR9-MyD88 binding inhibitor project, dose response (AID 588339); assay type: functional, cell-based, hamster; conditions: Cricetulus griseus;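 further: CHO cells stably coexpressing TLR9 and MyD88 fusions from primary screen; compound exposure lasted 48 hours before viability readout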
[18] = HIV-1 Vif–A3G interaction blockers – biochemical, TR-FRET, GST-Vif 1-94, biotin-A3G peptide, dose response retest, primary screen (AID 1117319); assay type: functional;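 further: TR-FRET signal of purified GST-Vif binding a biotinylated A3G peptide; inhibitors lower the FRET signal by blocking Vif and A3G binding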
[19] = target: T5, Kappa-type opioid receptor (Homo sapiens, UniProt P41145); assay type: functional
[20] = HEK-293T viability loss after treatment – luminescence, T-cell screen hits, cytotoxicity control for TCR NF-kB inhibitor project, dose response (AID 489026); assay type: functional, cell-based;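 further: cells exposed to compound about 14 hours before the viability readout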
[21] = target: Nonstructural protein 1 (Influenza A virus, UniProt Q194T2); assay type: functional, Influenza A virus (A/California/07/2009(H1N1))
[22] = target: T5, Kappa-type opioid receptor; assay type: functional; remark: listed apart in the source
[23] = test system: HT-1080; assay: HT1080 cell viability loss – fluorescence readout (AID 620); assay type: functional, cell-based; conditions: Homo sapiens
[24] = target: T6, Heat shock factor protein 1 (Mus musculus, UniProt P38532); assay: enhancement of HSF1-driven luciferase signal – cell-based, NIH3T3, luminescence, dose retest, confirmation (AID 435004); assay type: functional;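 further: stress induced by proteasome inhibitor MG132 added 30 min after compound; luciferase reporter driven by HSF1 response element in NIH3T3 cells; actives raise luminescence as potentiators of the MG132 stress response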
T6 sequence (P38532 whole entry): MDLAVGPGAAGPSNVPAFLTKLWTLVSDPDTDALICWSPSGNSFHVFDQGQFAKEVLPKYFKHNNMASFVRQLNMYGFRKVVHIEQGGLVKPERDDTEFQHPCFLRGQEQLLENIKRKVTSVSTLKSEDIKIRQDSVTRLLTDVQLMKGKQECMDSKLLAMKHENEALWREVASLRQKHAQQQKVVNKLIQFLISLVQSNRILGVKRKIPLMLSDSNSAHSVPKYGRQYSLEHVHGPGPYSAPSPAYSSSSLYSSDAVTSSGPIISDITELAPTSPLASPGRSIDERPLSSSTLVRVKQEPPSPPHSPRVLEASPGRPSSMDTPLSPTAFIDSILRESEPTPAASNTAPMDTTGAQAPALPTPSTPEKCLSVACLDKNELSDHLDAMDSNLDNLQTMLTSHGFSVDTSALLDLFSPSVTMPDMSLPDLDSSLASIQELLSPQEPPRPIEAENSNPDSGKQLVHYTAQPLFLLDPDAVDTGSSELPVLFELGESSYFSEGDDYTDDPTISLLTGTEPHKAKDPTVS

[25] = test system: Vero; assay: mammalian cell viability reduction – secondary assay, cytotoxicity control for West Nile virus antiviral project, dose response (AID 1650); assay type: functional; conditions: Chlorocebus sabaeus
[26] = target: Heat shock protein HSP 90-alpha (Homo sapiens, UniProt P07900); assay type: functional, organism-based
[27] = target: Luciferin 4-monooxygenase (Photinus pyralis, UniProt P08659); assay: Counter Screen for Luciferase-based Assay Positives. [Related pubchem assays: 620, 618, 411 ]
[28] = target: Exodeoxyribonuclease V (Escherichia coli (strain K12), UniProt P04993+P07648+P08394); assay: RecBCD inhibition via phage-restricted bacterial growth – absorbance, V66 E. coli, mutant T4 phage, counter-screen for AddAB inhibitor project, dose response (AID 492957); assay type: functional, cell-based, Escherichia coli str. K-12 substr. MG1655
[29] = Counterscreen for AddAB inhibitors: absorbance-based bacterial cell-based high throughput dose response assay for inhibitors of bacterial viability. [Related pubchem assays (depositor defined):AID435030, AID449728, AID449731, AID488942, AID488955, AID488956]; assay type: functional
[30] = target: Voltage-gated inwardly rectifying potassium channel KCNH2 (Homo sapiens, UniProt Q12809); conditions: Potency;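 further: confirmatory quantitative high-throughput screen measuring inhibition of hERG channel activity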
[31] = target: 5-hydroxytryptamine receptor 1A (Homo sapiens, UniProt P08908); assay type: functional
5-hydroxytryptamine receptor 1A, sequence (P08908 whole entry): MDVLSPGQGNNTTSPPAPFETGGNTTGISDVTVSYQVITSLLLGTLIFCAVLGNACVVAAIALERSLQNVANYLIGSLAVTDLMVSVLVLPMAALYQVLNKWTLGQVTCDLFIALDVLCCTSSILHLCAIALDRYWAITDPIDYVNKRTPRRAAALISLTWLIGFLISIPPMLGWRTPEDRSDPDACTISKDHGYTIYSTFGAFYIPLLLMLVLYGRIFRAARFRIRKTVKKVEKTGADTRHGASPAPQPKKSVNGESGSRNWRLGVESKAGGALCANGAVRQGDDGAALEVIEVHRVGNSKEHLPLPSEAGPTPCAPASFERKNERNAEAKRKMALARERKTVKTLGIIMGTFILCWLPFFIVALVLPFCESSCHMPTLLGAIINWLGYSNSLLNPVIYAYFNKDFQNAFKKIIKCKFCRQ

T5 sequence (P41145 whole entry): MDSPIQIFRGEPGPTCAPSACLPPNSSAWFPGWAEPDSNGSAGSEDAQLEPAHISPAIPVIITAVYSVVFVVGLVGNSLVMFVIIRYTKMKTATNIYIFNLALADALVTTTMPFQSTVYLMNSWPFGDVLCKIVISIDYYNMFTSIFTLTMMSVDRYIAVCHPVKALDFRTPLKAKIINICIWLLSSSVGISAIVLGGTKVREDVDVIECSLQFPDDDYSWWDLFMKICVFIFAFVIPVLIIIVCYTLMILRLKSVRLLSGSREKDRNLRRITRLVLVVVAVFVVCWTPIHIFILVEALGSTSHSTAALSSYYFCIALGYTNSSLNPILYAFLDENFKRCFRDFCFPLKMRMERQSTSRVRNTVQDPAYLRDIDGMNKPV
Ephrin type-A receptor 4, sequence (Q03137 whole entry, the tested form may be a part): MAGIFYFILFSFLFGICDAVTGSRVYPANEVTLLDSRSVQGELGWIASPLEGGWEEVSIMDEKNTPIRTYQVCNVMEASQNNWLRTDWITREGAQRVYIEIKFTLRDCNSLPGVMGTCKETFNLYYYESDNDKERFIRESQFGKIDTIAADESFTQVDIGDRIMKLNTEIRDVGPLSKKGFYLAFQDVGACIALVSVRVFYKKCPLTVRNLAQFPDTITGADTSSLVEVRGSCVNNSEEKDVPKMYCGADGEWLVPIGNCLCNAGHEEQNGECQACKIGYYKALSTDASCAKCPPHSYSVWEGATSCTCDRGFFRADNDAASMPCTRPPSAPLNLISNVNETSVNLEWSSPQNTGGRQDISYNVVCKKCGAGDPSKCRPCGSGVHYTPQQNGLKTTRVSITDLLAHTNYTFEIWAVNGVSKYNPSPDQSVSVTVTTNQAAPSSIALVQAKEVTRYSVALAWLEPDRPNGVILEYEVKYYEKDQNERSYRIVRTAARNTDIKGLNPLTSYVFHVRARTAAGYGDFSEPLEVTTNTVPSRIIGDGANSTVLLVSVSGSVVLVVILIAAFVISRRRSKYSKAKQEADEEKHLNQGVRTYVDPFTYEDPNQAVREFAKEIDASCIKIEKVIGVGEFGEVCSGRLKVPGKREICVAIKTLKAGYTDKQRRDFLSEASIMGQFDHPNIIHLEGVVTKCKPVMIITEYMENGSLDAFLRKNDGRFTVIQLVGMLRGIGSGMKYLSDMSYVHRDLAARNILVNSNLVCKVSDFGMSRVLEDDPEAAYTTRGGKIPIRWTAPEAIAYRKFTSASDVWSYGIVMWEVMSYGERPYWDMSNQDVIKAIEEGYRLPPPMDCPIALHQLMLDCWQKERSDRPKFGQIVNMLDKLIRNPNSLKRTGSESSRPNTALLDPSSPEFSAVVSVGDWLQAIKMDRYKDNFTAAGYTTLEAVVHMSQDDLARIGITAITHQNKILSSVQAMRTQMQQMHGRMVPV
Protein-tyrosine kinase 2-beta, sequence (Q14289 whole entry): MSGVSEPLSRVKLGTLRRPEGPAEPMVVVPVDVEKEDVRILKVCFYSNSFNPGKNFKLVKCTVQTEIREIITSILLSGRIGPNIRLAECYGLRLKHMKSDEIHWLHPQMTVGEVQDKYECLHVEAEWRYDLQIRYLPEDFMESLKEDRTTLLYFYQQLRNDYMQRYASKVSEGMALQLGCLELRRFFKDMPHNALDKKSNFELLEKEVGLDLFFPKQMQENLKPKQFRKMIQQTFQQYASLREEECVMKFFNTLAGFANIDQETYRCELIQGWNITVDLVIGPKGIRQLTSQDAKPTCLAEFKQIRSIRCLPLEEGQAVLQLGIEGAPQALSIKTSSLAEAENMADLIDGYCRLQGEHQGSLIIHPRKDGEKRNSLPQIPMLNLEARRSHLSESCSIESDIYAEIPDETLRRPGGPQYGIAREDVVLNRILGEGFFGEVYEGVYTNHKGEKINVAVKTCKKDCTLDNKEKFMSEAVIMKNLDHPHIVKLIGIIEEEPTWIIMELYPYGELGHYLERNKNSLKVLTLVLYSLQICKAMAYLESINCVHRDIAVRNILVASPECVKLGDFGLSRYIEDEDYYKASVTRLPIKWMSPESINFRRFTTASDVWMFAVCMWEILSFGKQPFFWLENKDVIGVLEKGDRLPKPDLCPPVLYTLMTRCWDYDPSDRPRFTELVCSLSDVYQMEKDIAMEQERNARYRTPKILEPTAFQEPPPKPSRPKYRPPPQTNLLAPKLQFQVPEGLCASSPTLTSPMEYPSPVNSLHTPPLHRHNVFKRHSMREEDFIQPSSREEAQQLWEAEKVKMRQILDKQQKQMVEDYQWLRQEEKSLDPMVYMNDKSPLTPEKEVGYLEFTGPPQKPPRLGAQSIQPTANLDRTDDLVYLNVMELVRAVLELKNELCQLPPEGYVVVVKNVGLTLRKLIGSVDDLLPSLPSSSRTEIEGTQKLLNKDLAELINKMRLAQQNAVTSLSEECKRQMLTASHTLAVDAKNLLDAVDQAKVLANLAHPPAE
Luciferin 4-monooxygenase, sequence (P08659 whole entry): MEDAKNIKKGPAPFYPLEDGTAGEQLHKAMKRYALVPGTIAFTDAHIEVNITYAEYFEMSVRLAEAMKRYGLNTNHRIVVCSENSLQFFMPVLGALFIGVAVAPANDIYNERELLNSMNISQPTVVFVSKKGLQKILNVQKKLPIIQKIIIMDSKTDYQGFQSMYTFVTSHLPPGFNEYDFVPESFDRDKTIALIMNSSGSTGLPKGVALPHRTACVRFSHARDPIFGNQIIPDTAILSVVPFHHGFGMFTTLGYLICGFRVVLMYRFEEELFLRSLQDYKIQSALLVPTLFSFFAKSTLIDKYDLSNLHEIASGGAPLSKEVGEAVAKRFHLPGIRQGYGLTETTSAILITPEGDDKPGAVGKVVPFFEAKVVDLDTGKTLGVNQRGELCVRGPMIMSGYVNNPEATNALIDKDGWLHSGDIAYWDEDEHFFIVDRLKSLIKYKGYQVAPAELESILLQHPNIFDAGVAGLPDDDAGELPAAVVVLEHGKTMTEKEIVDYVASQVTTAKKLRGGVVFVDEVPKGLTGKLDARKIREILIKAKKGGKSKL
Genome polyprotein, sequence (Q2Q167 whole entry): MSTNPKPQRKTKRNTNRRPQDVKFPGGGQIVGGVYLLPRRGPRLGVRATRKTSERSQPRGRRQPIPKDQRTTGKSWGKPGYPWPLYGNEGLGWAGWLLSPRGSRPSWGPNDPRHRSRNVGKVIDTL
72 kDa type IV collagenase, sequence (P08253 whole entry): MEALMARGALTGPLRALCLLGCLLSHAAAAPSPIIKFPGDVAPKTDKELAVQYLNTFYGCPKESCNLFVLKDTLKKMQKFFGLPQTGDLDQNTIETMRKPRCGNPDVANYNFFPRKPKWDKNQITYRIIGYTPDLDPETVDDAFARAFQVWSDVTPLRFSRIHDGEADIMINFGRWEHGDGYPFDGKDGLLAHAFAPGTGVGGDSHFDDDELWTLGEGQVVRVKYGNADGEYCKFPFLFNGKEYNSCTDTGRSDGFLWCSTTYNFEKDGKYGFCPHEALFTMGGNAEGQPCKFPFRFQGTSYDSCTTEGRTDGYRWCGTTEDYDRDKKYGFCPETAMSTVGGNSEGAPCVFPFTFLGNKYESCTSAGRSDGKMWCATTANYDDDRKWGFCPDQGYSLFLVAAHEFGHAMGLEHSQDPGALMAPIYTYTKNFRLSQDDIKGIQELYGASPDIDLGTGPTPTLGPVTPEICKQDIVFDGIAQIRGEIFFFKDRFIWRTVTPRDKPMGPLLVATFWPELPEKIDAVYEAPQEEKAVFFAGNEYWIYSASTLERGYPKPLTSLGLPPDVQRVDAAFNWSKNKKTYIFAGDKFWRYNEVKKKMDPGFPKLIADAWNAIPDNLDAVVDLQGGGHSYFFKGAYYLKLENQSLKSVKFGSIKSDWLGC
26S proteasome non-ATPase regulatory subunit 14, sequence (O00487 whole entry): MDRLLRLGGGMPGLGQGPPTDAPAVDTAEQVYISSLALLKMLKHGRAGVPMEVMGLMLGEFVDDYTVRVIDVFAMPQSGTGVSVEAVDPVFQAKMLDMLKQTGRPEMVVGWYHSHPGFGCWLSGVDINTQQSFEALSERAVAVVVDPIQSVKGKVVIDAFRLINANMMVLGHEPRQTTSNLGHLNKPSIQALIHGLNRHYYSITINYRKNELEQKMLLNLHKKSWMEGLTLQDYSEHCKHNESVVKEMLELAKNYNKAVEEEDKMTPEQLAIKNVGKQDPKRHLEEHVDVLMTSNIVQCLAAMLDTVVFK
Nonstructural protein 1, sequence (Q194T2 whole entry): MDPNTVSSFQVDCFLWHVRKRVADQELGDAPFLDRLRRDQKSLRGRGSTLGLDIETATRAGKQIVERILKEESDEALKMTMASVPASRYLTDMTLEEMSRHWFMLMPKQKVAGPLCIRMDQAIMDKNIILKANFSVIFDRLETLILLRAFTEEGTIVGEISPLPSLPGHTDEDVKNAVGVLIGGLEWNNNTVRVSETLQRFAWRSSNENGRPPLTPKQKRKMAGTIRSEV

CCOc1ccc2nc(NC3=NC(=O)CC(c4ccc(OC)cc4)N3)nc(C)c2c1 (stereo unspecified)
EC50 [1]: 7.4 µM (active) | IC50 [2]: > 100 µM (inactive) | AC50 [3]: 8.71 µM (active) | IC50 [4]: 22 µM (active) | IC50 [5]: 17.6 µM (active) | EC50 [6]: 9.86 µM (active) | AC50 [7]: 27.7 µM (active) | IC50 [8]: 77.6 µM (active) | IC50 [9]: 5.85 µM (active) | AC50 [10]: 9.49 µM (active)

Cc1cc(C)c2nc(N3CCCN(C(=O)c4ccco4)CC3)c(C#N)cc2c1
IC50 [11]: 16.6 µM (active)

O=C1CSC(=S)N1/N=C/c1ccc(Cl)c([N+](=O)[O-])c1
EC50 [12]: 18.6 µM (active) | IC50 [13]: > 49.8 µM (not active) | EC50 [14]: 15.7 µM (active)

O=S1(=O)Nc2c(ccc3cccnc23)-c2ccccc21
CC50 [15]: 13.8 µM (active) | EC50 [16]: > 31.5 µM (inactive) | IC50 [17]: 1.77 µM (active) | IC50 [18]: > 100 µM (active) | IC50 [19]: 1.3 µM (active) | IC50 [20]: > 80 µM (inactive) | IC50 [21]: 3.63 µM (active) | IC50 [22]: > 32 µM | EC50 [23]: > 50 µM (not active) | EC50 [24]: 2.76 µM (active) | CC50 [25]: 4.21 µM (active) | AC50 [26]: < 0.195 µM (active) | EC50 [27]: 2.82 µM (active)

Cc1cc(C(C)(C)C)cc(C)c1CC1=NCCN1 [XYLOMETAZOLINE HYDROCHLORIDE]
IC50 [28]: > 119 µM (inactive) | IC50 [29]: 29.7 µM (inactive) | AC50 [30]: 14.1 µM (inconclusive) | EC50 [31]: 0.129 µM (active)
